Data: PMC12030706, “Novel ^177Lu-Labeled [Thz^14]Bombesin(6–14) Derivatives with Low Pancreas Accumulation for Targeting Gastrin-Releasing Peptide Receptor-Expressing Cancer” (Pharmaceuticals, 2025)

Experiment: Ex vivo biodistribution in PC-3 tumor-bearing mice
Conditions: mouse; for tissue uptake at 4 h: 4 h post-injection; for tissue uptake at 24 h: 24 h post-injection; for tissue uptake at 72 h: 72 h post-injection; for tissue uptake at 120 h: 120 h post-injection
Experimental: SPECT/CT imaging experiments were performed using an MILabs (Houten, The Netherlands) U-SPECT-II/CT scanner with a custom-made ultra-high-sensitivity big mouse collimator (2 mm pinhole size) following previously reported procedures. […] Male NOD.Cg-Rag1^tm1Mom Il2rg^tm1Wjl/SzJ (NRG) mice were used in these experiments because of their immunodeficient characteristics and excellent radiation tolerance. Mice were anaesthetized and subcutaneously implanted with 5 × 10^6 PC-3 prostate cancer cells (100 µL; 1:1 PBS/Matrigel) behind the left shoulder. SPECT/CT imaging and biodistribution studies were performed once the tumors reached a diameter of 5–8 mm, typically after approximately 4 weeks of growth.
For ex vivo biodistribution studies, the mice were injected with ~2–6 MBq of the radioligand. […] Blocking study was conducted at 1 h post-injection via co-injection of the radioligand with 100 μg of [D-Phe^6,Leu-NHEt^13,des-Met^14]Bombesin(6–14). Organs/tissues of interested were collected, weighed, and measured using an automatic gamma counter.

[1] = large intestine, Uptake in large intestine
[2] = small intestine, Uptake in small intestine

**Q.** What does the source list for `CC(C)C[C@@H](CN1CSC[C@H]1C(N)=O)NC(=O)[C@H](Cc1cnc[nH]1)NC(=O)CN(C)C(=O)[C@@H](NC(=O)[C@H](C)NC(=O)[C@H](Cc1c[nH]c2ccccc12)NC(=O)[C@H](CCC(N)=O)NC(=O)[C@@H](Cc1ccccc1)NC(=O)CN1CCC(NC(=O)CN2CCN(CC(=O)O)CCN(CC(=O)O)CCN(CC(=O)O)CC2)CC1)C(C)C` [[^177Lu]Lu-TacsBOMB5, metal not drawn]?
**A.** tissue uptake at 1 h (kidneys, 100 ug, Uptake in kidneys, 1 h blocked (co-injected with 100 µg [D-Phe6,Leu-NHEt13,des-Met14]Bombesin(6-14))): 2.78 ± 0.51 %ID/g; tissue uptake at 1 h (kidneys, Uptake in kidneys, 1 h post-injection): 3.47 ± 0.29 %ID/g; tissue uptake at 4 h (kidneys, Uptake in kidneys): 3.1 ± 0.35 %ID/g; tissue uptake at 24 h (kidneys, Uptake in kidneys): 1.38 ± 0.18 %ID/g; tissue uptake at 72 h (kidneys, Uptake in kidneys): 0.6 ± 0.07 %ID/g; tissue uptake at 120 h (kidneys, Uptake in kidneys): 0.39 ± 0.11 %ID/g; tissue uptake at 1 h (large intestine, 100 ug, Uptake in large intestine, 1 h blocked (co-injected with 100 µg [D-Phe6,Leu-NHEt13,des-Met14]Bombesin(6-14))): 0.13 ± 0.04 %ID/g; tissue uptake at 1 h (large intestine, Uptake in large intestine, 1 h post-injection): 0.31 ± 0.09 %ID/g; tissue uptake at 4 h [1]: 0.42 ± 0.09 %ID/g; tissue uptake at 24 h [1]: 0.42 ± 0.25 %ID/g; tissue uptake at 1 h (liver, 100 ug, Uptake in liver, 1 h blocked (co-injected with 100 µg [D-Phe6,Leu-NHEt13,des-Met14]Bombesin(6-14))): 0.29 ± 0.05 %ID/g; tissue uptake at 1 h (liver, Uptake in liver, 1 h post-injection): 0.67 ± 0.07 %ID/g; tissue uptake at 4 h (liver, Uptake in liver): 0.54 ± 0.04 %ID/g; tissue uptake at 24 h (liver, Uptake in liver): 0.29 ± 0.02 %ID/g; tissue uptake at 120 h (liver, Uptake in liver): 0.16 ± 0.07 %ID/g; tissue uptake at 1 h (lungs, 100 ug, Uptake in lungs, 1 h blocked (co-injected with 100 µg [D-Phe6,Leu-NHEt13,des-Met14]Bombesin(6-14))): 0.37 ± 0.04 %ID/g; tissue uptake at 1 h (lungs, Uptake in lungs, 1 h post-injection): 2.2 ± 0.93 %ID/g; tissue uptake at 4 h (lungs, Uptake in lungs): 1.45 ± 0.34 %ID/g; tissue uptake at 24 h (lungs, Uptake in lungs): 0.25 ± 0.03 %ID/g; tissue uptake at 72 h (lungs, Uptake in lungs): 0.13 ± 0.01 %ID/g; tissue uptake at 120 h (lungs, Uptake in lungs): 0.07 ± 0.03 %ID/g; tissue uptake at 1 h (muscle, 100 ug, Uptake in muscle, 1 h blocked (co-injected with 100 µg [D-Phe6,Leu-NHEt13,des-Met14]Bombesin(6-14))): 0.13 ± 0.03 %ID/g; tissue uptake at 1 h (muscle, Uptake in muscle, 1 h post-injection): 0.22 ± 0.01 %ID/g; tissue uptake at 72 h (muscle, Uptake in muscle): 0.02 %ID/g; tissue uptake at 120 h (muscle, Uptake in muscle): 0.01 %ID/g; tissue uptake at 1 h (pancreas, 100 ug, Uptake in pancreas, 1 h blocked (co-injected with 100 µg [D-Phe6,Leu-NHEt13,des-Met14]Bombesin(6-14))): 0.59 ± 0.11 %ID/g; tissue uptake at 1 h (pancreas, Uptake in pancreas, 1 h post-injection): 1.08 ± 0.22 %ID/g; tissue uptake at 4 h (pancreas, Uptake in pancreas): 0.21 ± 0.01 %ID/g; tissue uptake at 72 h (pancreas, Uptake in pancreas): 0.04 ± 0.01 %ID/g; tissue uptake at 120 h (pancreas, Uptake in pancreas): 0.02 %ID/g; tissue uptake at 1 h (small intestine, 100 ug, Uptake in small intestine, 1 h blocked (co-injected with 100 µg [D-Phe6,Leu-NHEt13,des-Met14]Bombesin(6-14))): 0.26 ± 0.04 %ID/g; tissue uptake at 1 h (small intestine, Uptake in small intestine, 1 h post-injection): 0.6 ± 0.16 %ID/g; tissue uptake at 4 h [2]: 0.19 ± 0.05 %ID/g; tissue uptake at 24 h [2]: 0.09 ± 0.03 %ID/g; tissue uptake at 120 h [2]: 0.02 %ID/g; tissue uptake at 1 h (spleen, 100 ug, Uptake in spleen, 1 h blocked (co-injected with 100 µg [D-Phe6,Leu-NHEt13,des-Met14]Bombesin(6-14))): 0.15 ± 0.02 %ID/g; tissue uptake at 1 h (spleen, Uptake in spleen, 1 h post-injection): 0.31 ± 0.03 %ID/g; tissue uptake at 24 h (spleen, Uptake in spleen): 0.16 ± 0.03 %ID/g; tissue uptake at 72 h (spleen, Uptake in spleen): 0.18 ± 0.05 %ID/g; tissue uptake at 120 h (spleen, Uptake in spleen): 0.14 ± 0.06 %ID/g; tissue uptake at 1 h (stomach, 100 ug, Uptake in stomach, 1 h blocked (co-injected with 100 µg [D-Phe6,Leu-NHEt13,des-Met14]Bombesin(6-14))): 0.06 ± 0.01 %ID/g; tissue uptake at 24 h (stomach, Uptake in stomach): 0.27 ± 0.16 %ID/g; tissue uptake at 120 h (stomach, Uptake in stomach): 0.02 ± 0.02 %ID/g; tissue uptake at 1 h (testes, 100 ug, Uptake in testes, 1 h blocked (co-injected with 100 µg [D-Phe6,Leu-NHEt13,des-Met14]Bombesin(6-14))): 0.18 ± 0.02 %ID/g; tissue uptake at 1 h (testes, Uptake in testes, 1 h post-injection): 0.45 ± 0.11 %ID/g; tissue uptake at 24 h (testes, Uptake in testes): 0.12 ± 0.02 %ID/g
